In patent US6593094B2, “Compositions to enhance the efficacy and safety of bio-pharmaceutical drugs” (priority 1992, dated 2003):

How the values were obtained:
β2 receptor = β2 receptor (Cavia porcellus, UniProt Q8K4Z4); conditions: calculated from a fit of the isoproterenol control curve
Excerpt: It is noted that, in the relevant art, there exists a method for calculating drug efficacy by utilization of easily identifiable biophysical parameters. […] Specifically, the experimental data and the calculated values were compared.

mice = conditions: i.v. in mice; cited from earlier work
beta-1-receptors = biological target: T1, beta-1-receptors (Rattus norvegicus, UniProt P18090); test: in vivo cardiac response (dP/dt, LVP, HR) in anesthetized rat during infusion; conditions: i.v. infusion at varying rates
T1 construct: from tissue; host or cells: heart of anesthetized rat, in vivo (left ventricular pressure, dP/dt, heart rate)
T1 sequence (P18090 whole entry, the tested form may be a part): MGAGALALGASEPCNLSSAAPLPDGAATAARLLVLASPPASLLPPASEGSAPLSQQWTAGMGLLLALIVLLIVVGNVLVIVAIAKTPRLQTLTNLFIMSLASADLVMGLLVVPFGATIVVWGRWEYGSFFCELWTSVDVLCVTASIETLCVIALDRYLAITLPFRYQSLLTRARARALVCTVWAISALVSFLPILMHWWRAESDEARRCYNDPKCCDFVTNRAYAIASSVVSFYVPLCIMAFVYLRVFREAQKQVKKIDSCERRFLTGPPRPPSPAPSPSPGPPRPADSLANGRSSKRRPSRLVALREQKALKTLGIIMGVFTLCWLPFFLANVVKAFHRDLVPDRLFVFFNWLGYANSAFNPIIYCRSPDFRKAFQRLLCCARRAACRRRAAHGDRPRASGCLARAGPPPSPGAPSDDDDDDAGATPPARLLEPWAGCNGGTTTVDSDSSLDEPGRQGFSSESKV
Method: Following sedation, the neck of the rat was incised and a tracheotomy was performed, inserting a 14-gauge angiocatheter sheath into the trachea of the rat and securing it with a silk tie. The angiocatheter was connected through a small tube to a small animal respirator supplied with 1.0 liters of oxygen per minute and set to 95 breaths per minute.
The right carotid artery was next tied off, and after making a small incision, a Micro-Tip Millar pressure catheter was introduced down through the carotid artery, placing the end of the catheter into the left ventricular cavity of the rat's heart. Position of the catheter tip was determined by the waveform of the pressure reading-placement in the left ventricle was presumed when a diastolic pressure of zero mmHg and a reasonable systolic pressure (70 to 150 mmHg) was observed. […]
At this point for each rat, a baseline recording was obtained of the left ventricular pressure tracing. Segments of three to five seconds were recorded, and it was from these recorded tracings that the included figures of maximum left ventricular pressure (reported as LVP), maximum time-derivative of left ventricular pressure (dP/dT), and heart rate (HR) were later determined, by analysis with Sonometrics CardioSOFT data analysis software. […]
Again, at each rate, LVP was recorded for later analysis. […]

Chain of β2 receptor (Q8K4Z4 whole entry): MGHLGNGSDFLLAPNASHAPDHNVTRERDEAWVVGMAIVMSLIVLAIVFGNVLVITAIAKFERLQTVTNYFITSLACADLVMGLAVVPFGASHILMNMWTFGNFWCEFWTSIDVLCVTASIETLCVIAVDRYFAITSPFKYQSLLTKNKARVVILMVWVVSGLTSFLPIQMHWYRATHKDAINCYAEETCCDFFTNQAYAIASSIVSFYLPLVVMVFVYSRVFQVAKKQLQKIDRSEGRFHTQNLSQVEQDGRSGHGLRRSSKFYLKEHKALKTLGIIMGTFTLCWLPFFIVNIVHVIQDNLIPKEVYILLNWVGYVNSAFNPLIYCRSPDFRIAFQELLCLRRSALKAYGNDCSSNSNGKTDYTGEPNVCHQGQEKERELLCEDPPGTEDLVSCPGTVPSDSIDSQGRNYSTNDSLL

φ=(KDLKDH/2)^−½, value of the maximum of the control curve (β2 receptor) [µM]	SMILES	LD50 (mice) [mg/kg]	dP/dT response with increasing dosage (beta-1-receptors)	dP/dT response with increasing dosage (beta-1-receptors; listed as Dob)
7.48	CC(C)NCC(O)c1ccc(O)c(O)c1 (stereo not shown) [isoproterenol]	–	–	–
–	CC(CCc1ccc(O)cc1)NCCc1ccc(O)c(O)c1 (stereo not shown) [dobutamine]	73	at higher dosages the dP/dT again began to decrease (desensitization)	showed a decline in response
